Measured values as given in patent publication US11850266B2, “Cardiomyocytes and compositions and methods for producing the same” (President and Fellows of Harvard College, priority 2019, dated 2023).
“Also recorded” adds a separate entry of the source.

What was measured:
Type in all cases: cell-based, human
[1] = test system: iPSC-derived cardiomyocytes; assay: Spontaneous beating rate of cardiomyocytes
Description: The BJRiPS cell line was used to generate preliminary data. BJRiPS cells were differentiated into cardiomyocytes according to previously published protocols (6). After the onset of beating (around day 10), cardiomyocytes were treated with vehicle (DMSO) or different concentrations of rapamycin, Torin1, or Torin2 for different time periods. Beating rate was counted manually. Some cells were harvested after 5-7 days of treatment for flow cytometry analysis. Other cells were harvested after 7 days of treatment for qPCR.

[2] = test system: GCaMP-derived cardiomyocytes; assay: Cardiomyocyte purity (% TNNT2+) in 3D suspension culture; conditions: Torin1 24 hours from day 9, assay day 10; ~70% TNNT2+ with the protocol
Description: Cardiomyocyte differentiation of iPSCs in suspension culture. The suspension differentiation protocol outlined by Kempf et al (79) will be used with some modifications. 30 ml and 125 ml disposable spinner flasks are set on a spinner plate capable of rotation speeds between 40-70 rpm placed in a 37° C., 5% CO2 incubator. Cells are seeded at 750,000 cells/ml and allowed to grow for 4 days in maintenance media until spheroids are approximately 300 μm in diameter, then differentiation is initiated with 7.5 μM CHIR99021. On day 2 of differentiation, CHIR is removed from the media and the Wnt pathway inhibitor IWP4 (5 μM) is added to the media, on day 4 of differentiation, IWP4 is removed from the media, and from day 7 onward, insulin is included in the media. […] Differentiation conditions will be optimized with all five cell lines (BJRiPS-A, DiPS 1016 SevA, GCaMP, Gibco, UCSD142i-86-1). Cardiomyocyte purity will be quantified with flow cytometry detecting TNNT2+ cells.
An example of a differentiation protocol for generating cardiomyocytes from iPSCs in suspension culture is detailed as follows. 30 ml and 125 ml disposable spinner flasks were used and were set on a spinner plate capable of rotation speeds between 40-70 rpm, where the spinner plate is placed in a 37° C., 5% CO2 incubator. […] Cardiomyocyte purity will be quantified with flow cytometry detecting TNNT2+ cells.

[3] = test system: iPSC-derived cardiomyocytes; assay: Flow cytometry (TNNT2+ purity, MFI of TNNT2 and Kir2.1) and cell counts
Description: To prepare for differentiation, iPSCs were plated at a density between 20,000 to 80,000 cells (depending on the cell line) per well of a 12-well plate at four days prior to onset of differentiation. Cells were differentiated according to the protocol previously described by Lian et al. with some modifications (FIG. 1A) (1). Basal media was changed from StemFlex to RPMI/B27 on day 0 of differentiation. The GSK3 inhibitor, CHIR99021 (6 μM), was added for 48 hours from day 0 to day 2 of differentiation when cells were approximately 70-80% confluent. The Wnt antagonist IWP4 (5 μM) was added from days 2 to 4 of differentiation. Insulin (10 μg/ml) was added to the media starting on day 7 of differentiation, and media was changed every 2-3 days. In general, higher purity (TNNT2+) cardiomyocytes were observed when beating initiated prior to day 10 of differentiation, therefore only batches with onset of beating between days 7-10 of differentiation were included in this study. Beating cardiomyocytes were treated with Torin1 (200 nM, unless otherwise noted) or vehicle (0.02% dimethylsulfoxide (DMSO)) beginning at ˜2 days after onset of beating for 7 days (media changed with fresh Torin1 or DMSO every 2-3 days), unless otherwise noted. After Torin1 treatment, media was switched back to RPMI/B27/insulin and maintained with media change every 2-3 days until endpoint assay. In a few assays, fatty acids were added in the form of chemically defined lipids (Gibco) diluted 1:1000 simultaneous with Torin1 treatment. In some other assays, fetal bovine serum (10% FBS) was added to cells after completion of Torin treatment for 2-4 days.
Cells were dissociated and 5×10^5 to 1×10^6 cells were used per condition. For cell cycle analysis, 5×10^5 cells per condition were fixed in 70% cold ethanol for at least 2 hours to overnight at −20 degrees C. Cells were stained first with AlexaFluor 647-TNNT2 in Permeabilization Buffer (Thermo) then with Hoechst 33342 (2 μg/ml) and pyronin Y (4 μg/ml) for 20 minutes to distinguish between cells in G0, G1, and S-G2-M phases. For other stains, cells were fixed in eBioscience Intracellular Fixation buffer for 30 minutes followed washing twice in eBioscience Permeabilization Buffer and stained with the appropriate primary antibody (Table 2) in eBioscience FACS Staining buffer for 30-60 minutes. If a secondary antibody was used, cells were incubated with the appropriate secondary antibody (Table 2) for 30-60 minutes. The geometric mean fluorescence intensity (MFI) was quantified for TNNT2 and Kir2.1 antibodies. Data were acquired via a BD LSRII instrument and analyzed using FlowJo software.

Structure (SMILES): CCC(=O)N1CCN(c2ccc(-n3c(=O)ccc4cnc5ccc(-c6cnc7ccccc7c6)cc5c43)cc2C(F)(F)F)CC1 [Torin1]
- spontaneous rate of contraction ([1]; Example 1, FIG. 4C): decrease
- beating rate of cardiomyocytes ([1]; Torin1 10, 50, 200 nM, Torin2 200 nM, from day 11 for 4-5 days, FIG. 29): decreased the beating rate
- beating rates at 1 week ([1]; dose-dependent, BJRiPS-CMs, FIG. 29): significantly decreased beating rates
- % TNNT2+ cardiomyocyte purity in 3D suspension culture [2]: trend toward higher purity; also recorded: trend toward higher % TNNT2+ cells
- Torin1-induced increase in TNNT2 MFI after 10% FBS ([3]; 10% FBS 2 days after completion of Torin1, UCSD-CMs, FIG. 2I): reversed
- TNNT2 MFI with shorter (5 days) or later (starting 10 days after initiation of beating) treatment ([3]; FIGS. 10, 11): beneficial effects on TNNT2 MFI
- MFI of extracellular Kir2.1 by flow cytometry ([3]; Torin1 7 days, BJRiPS, FIG. 4B): significantly increased
- TNNT2 MFI by flow cytometry ([3]; Torin1 7 days, Gibco iPS-CMs, FIG. 2C): dose-dependent increase
- absolute numbers of cells per well ([3]; Torin1 from day 9, 12 well plate, BJRiPS-CMs, FIG. 1C): non-significant trend toward decreased absolute numbers of cells per well
- purity of TNNT2+ cells ([3]; non-significant trend, Gibco iPS-CMs, FIG. 1D): increased purity of TNNT2+ cells
- TNNT2 protein by mean fluorescence intensity (flow cytometry) ([3]; three cell lines (BJRiPS, GCaMP, Gibco), FIG. 18E): significant increase in protein expression of TNNT2
